Measurements as given in ChEMBL document CHEMBL3045932 (J Pestic Sci, 2005).
Values belong to the compound of their own block, whether it stands above or below them. The source made the active and inactive calls. The calls are words filed in the database; no cut-off is given here.

Columns and labels:
Echinochloa oryzicola [1] = assay: Herbicidal activity against Echinochloa oryzicola assessed as shoot length after 7 days by hydroponics test; type: functional, organism-based; conditions: 168 h, read-out: I50
Oryza sativa [2] = assay: Toxicity in Oryza sativa (rice) assessed as shoot length after 7 days by hydroponics test; type: organism-based; conditions: 168 h, read-out: I50
Echinochloa oryzicola [3] = assay: Herbicidal activity against 2.5-leaf stage of Echinochloa oryzicola assessed as growth inhibition at 2.5 g/a by greenhouse test in presence of fenitrothion; type: functional, organism-based
Echinochloa oryzicola [4] = assay: Herbicidal activity against 2.5-leaf stage of Echinochloa oryzicola assessed as growth inhibition at 2.5 g/a by greenhouse test in presence of triphenyl phosphate; type: functional, organism-based
Oryza sativa [5] = assay: Toxicity in 2 cm transplanted Oryza sativa (rice) assessed as growth inhibition at 10 g/a by greenhouse test; type: organism-based; conditions: in vivo
Echinochloa oryzicola [6] = assay: Herbicidal activity against Echinochloa oryzicola assessed as shoot length after 7 days by hydroponics test in presence of triphenyl phosphate; type: functional, organism-based
Echinochloa oryzicola [7] = assay: Herbicidal activity against Echinochloa oryzicola assessed as shoot length after 7 days by hydroponics test in presence of 1-aminobenzotriazole; type: functional, organism-based
Echinochloa oryzicola [8] = assay: Drug metabolism in 2.5-leaf stage Echinochloa oryzicola assessed as 1-[1-(3,5-dichlorophenyl)-1-methylethyl]-4-methyl-3-phenyl-3-pyrrolin-2-one level per gram of fresh weight at 25 nM after 6 days; type: ADME, organism-based; conditions: in vivo, 144 h, 0.025 µM
Echinochloa oryzicola [9] = assay: Herbicidal activity against Echinochloa oryzicola assessed as shoot length after 7 days by hydroponics test in presence of fenitrothion; type: functional, organism-based
Echinochloa oryzicola [10] = assay: Herbicidal activity against Echinochloa oryzicola assessed as shoot length after 7 days by hydroponics test in presence of tributylphosphate; type: functional, organism-based
Oryza sativa [11] = assay: Toxicity in zero transplanted Oryza sativa (rice) assessed as growth inhibition at 5 to 10 g/a by greenhouse test; type: organism-based; conditions: in vivo
Oryza sativa [12] = assay: Toxicity in zero transplanted Oryza sativa (rice) assessed as growth inhibition at 5 to 10 g/a by greenhouse test in presence of triphenyl phosphate; type: organism-based; conditions: in vivo
[13] = Drug metabolism assessed as parent compound level in presence of porcine esterase and 10 uM of triphenyl phosphate; type: physicochemical; conditions: pig, isolated protein
Oryza sativa [14] = assay: Toxicity in zero transplanted Oryza sativa (rice) assessed as growth inhibition at 5 to 10 g/a by greenhouse test in presence of fenitrothion; type: organism-based; conditions: in vivo
[15] = Drug metabolism assessed as formation of 1-[1-(3,5-dichlorophenyl)-1-methylethyl]-4-methyl-3-phenyl-3-pyrrolin-2-one in presence of porcine esterase and 1 uM triphenyl phosphate; type: physicochemical; conditions: pig, isolated protein
Echinochloa oryzicola [16] = assay: Herbicidal activity against 2.5-leaf stage of Echinochloa oryzicola assessed as growth inhibition at 2.5 g/a by greenhouse test; type: functional; conditions: read-out: GI
[17] = Drug metabolism assessed as parent compound level in presence of porcine esterase and 1 uM of triphenyl phosphate; type: physicochemical; conditions: pig, isolated protein
[18] = Drug metabolism assessed as formation of 1-[1-(3,5-dichlorophenyl)-1-methylethyl]-4-methyl-3-phenyl-3-pyrrolin-2-one in presence of porcine esterase and 10 uM triphenyl phosphate; type: physicochemical; conditions: pig, isolated protein
Oryza sativa [19] = assay: Drug metabolism in 2.5-leaf stage Oryza sativa (rice) assessed as 1-[1-(3,5-dichlorophenyl)-1-methylethyl]-4-methyl-3-phenyl-3-pyrrolin-2-one level per gram of fresh weight at 25 nM after 6 days; type: ADME, organism-based; conditions: in vivo, 144 h, 0.025 µM
[20] = Drug metabolism assessed as formation of 1-[1-(3,5-dichlorophenyl)-1-methylethyl]-4-methyl-3-phenyl-3-pyrrolin-2-one in presence of porcine esterase; type: physicochemical; conditions: pig, isolated protein
[21] = Drug metabolism assessed as parent compound level in presence of porcine esterase; type: physicochemical; conditions: pig, isolated protein

Structure (SMILES): CC1=C(c2ccccc2)C(=O)N(C(C)(C)c2cc(Cl)cc(Cl)c2)C1
- IC50 (Echinochloa oryzicola [1]): 12 nM
- IC50 (Oryza sativa [2]): 115 nM
- growth inhibition (GI) (Echinochloa oryzicola [3]): Active
- growth inhibition (GI) (Echinochloa oryzicola [4]): Active

- Drug metabolism (Echinochloa oryzicola [8]): 1.88 nM
- Drug metabolism [13]: 4.26 µM
- Drug metabolism [15]: 2.69 µM
- Drug metabolism [17]: 2.5 µM
- Drug metabolism [18]: 0.66 µM
- Drug metabolism (Oryza sativa [19]): 0.47 nM
- Drug metabolism [20]: 3 µM
- Drug metabolism [21]: 1.97 µM
Structure (SMILES): COC(=O)C1(c2ccccc2)C(=O)N(C(C)(C)c2cc(Cl)cc(Cl)c2)C=C1C (stereo not given)
- Activity (Oryza sativa [5]): Non-toxic
- Activity (Echinochloa oryzicola [6]): inactive
- Activity (Echinochloa oryzicola [7]): Active
- IC50 (Echinochloa oryzicola [1]): 25 nM
- Activity (Echinochloa oryzicola [9]): inactive
- Activity (Echinochloa oryzicola [10]): Active
- Activity (Oryza sativa [11]): Toxic
- Activity (Oryza sativa [12]): Non-toxic
- IC50 (Oryza sativa [2]): 2630 nM
- Activity (Oryza sativa [14]): Non-toxic
- inhibition of growth at 250 g/ha (Echinochloa oryzicola [16]): 96%
- growth inhibition (GI) (Echinochloa oryzicola [3]): inactive
- growth inhibition (GI) (Echinochloa oryzicola [4]): inactive
